According to paper PMC7700040, “Phytochemical Analysis, Anti-inflammatory, and Antioxidant Activities of Dendropanax dentiger Roots” (BioMed Research International, 2020):
Values after ≈ are worked out from the molar mass of the structure shown.

How the values were obtained:
[1] = DPPH radical scavenging activity; settings: mean ± SD (n = 3)
Protocol: Briefly, 150 μL of DPPH solution (dissolved 0.2 mM in methanol) was mixed with 50 μL of the sample at different concentrations. The mixture was stirred and incubated in the dark at 30°C for 30 min, and the absorbance was determined at 517 nm (Asample). The absorbance of a blank (Ablank) and negative control (Acontrol) composed of only the sample and DPPH solutions was also determined, respectively. The DPPH radical scavenging activity of the sample was calculated by the following equation: DPPHscavengingactivity = [1 − (Asample–Ablank)/Acontrol] × 100%. Vc was used as a positive control in this experiment.

[2] = ABTS radical scavenging activity; settings: mean ± SD (n = 3)
Protocol: The ABTS radical scavenging activity of the sample was carried out using the method reported by Sun et al. with minor modification. Briefly, 1.76 mL of K2S2O8 (140 mM) and 100 mL of ABTS solution (7 mM) were mixed and stored in the dark at 25°C for 12 h. […] The absorbance of a blank (Ablank) and negative control (Acontrol) composed of only the sample and diluted ABTS^+ radical solutions was also determined, respectively. The ABTS radical scavenging activity of the sample was calculated by the following equation: […] = [1 - (Asample-Ablank)/Acontrol] × 100%. Vc was used as a positive control in this experiment.

O=C1O[C@H]([C@@H](O)CO)C(O)=C1O [Vc, L-Ascorbic acid]
IC50 DPPH assay [1]: 6.0 ± 0.2 µg/mL (≈ 34.1 µM) | IC50 ABTS assay [2]: 1.2 ± 0.1 µg/mL (≈ 6.81 µM)
